Like-named read-outs stand apart in the source and are kept apart here.
Columns and labels:
[1] = tested on: PI 3-kinase (p110α/p85α); assay: PI 3-kinase inhibition assay; type: biochemical; conditions: selectivity ratio from the IC50s for PI 3-kinase and DNA-PK
Description: (§1) In order to assess the inhibitory action of the compounds against PI 3-kinase in vitro, the following assay was used to determine IC50 values.
(§2) Baculoviral recombinant GST-fused PI 3-kinase (p110α/p85α) was purified from Sf9 insect cells using GSH-sepharose affinity chromatography as described (Wymann, M. T et al., (1996) Wortmannin inactivates phosphoinositide 3-kinase by covalent modification of Lys-802, a residue involved in the phosphate transfer reaction. Mol. Cell Biol. 16:1722-1733). PI 3-kinase (1 μl) was diluted in reaction buffer (89 μl of 50 mM Hepes pH 7.5, 150 mM NaCl, 0.1 mM Sodium Orthovanadate, containing 20 μg of phosphatidylinositol) and varying concentrations of inhibitor compound added. […] Reactions were incubated for a further 20 minutes at 37° C., before quenching with the addition of 400 μl of chloroform/methanol (1:1). Reactions were acidified by the addition of 200 μl of 1M HCl, before separation of the organic and aqueous phases by centrifugation at 10,000 g for 30 seconds. The organic phase was transferred to a fresh tube and washed twice with 150 μl of 1M hydrochloric acid/methanol (1:1), discarding the aqueous phase. The washed reaction product was then placed in a white 96-well plate with 100 μl of scintillation fluid and transferred to a TopCount NXT for scintillation counting. Counts per minute, following a one minute counting time, were recorded for each reaction. The inhibition of PI 3-kinase activity by compounds was calculated as described above for the DNA-PK assay.
(§3) The selectivity was determined by the following equation: […]

[2] = tested on: HeLa cells; assay: Enhancement Ratio: cell growth inhibition (SRB assay) after 2 Gy irradiation; type: cell-based; conditions: inhibitor 25 μM
Method: DNA-PK inhibitors were used at a fixed concentration of 25 micromolar. Radiation was delivered by a Faxitron 43855D X-ray system at a dose rate of 1Gy per minute The Enhancement ratio at 2 Gy irradiation was calculated from the formula: [formula] Cell growth was assessed using the sulforhodamine B (SRB) assay (Skehan, P., Storung, R., Scudiero, R., Monks, […]., Kenny, S. and Boyd, M. R. (1990) New calorimetric cytotoxicity assay for anticancer-drug screening. J. Natl. Cancer Inst. 82:1107-1112). 400 HeLa cells were seeded into each well of a flat-bottomed 48-well microtiter plate in a volume of 200 μl and incubated for 6 h at 37° C. […] Cells were allowed to grow for a further 1 h before irradiation or mock irradiation. Cells untreated with DNA-PK inhibitor or unirradiated were used as a control. Cells treated with DNA-PK inhibitor alone were used to assess the growth inhibition by the DNA-PK inhibitor. Cells were left for a further 16 h before replacing the media and allowing the cells to grow for a further 6 days at 37° C. The media was then removed and the cells fixed with 200 μl of ice cold 10% (w/v) trichloroacetic acid. The plates were incubated at 4° C. for 20 minutes and then washed four times with water. Each well of cells was then stained with 200 μl of 0.4% (w/v) SRB in 1% acetic acid for 20 minutes before washing four times with 1% acetic acid. Plates were then dried for 2 h at room temperature. The dye from the stained cells was solubilized by the addition of 100 μl of 10 mM Tris Base into each well. Plates were gently shaken and left at room temperature for 30 minutes before measuring the optical density at 564 nm on a Microquant microtiter plate reader.

[3] = biological target: T1, ATM protein (Homo sapiens, UniProt Q13315); assay: ATM inhibition assay (immunoprecipitated ATM, GSTp53N66 substrate); type: biochemical
T1 construct: ATM protein was immunoprecipitated from HeLa cell nuclear extract; endogenous in cells; host or cells: HeLa cell nuclear extract (immunoprecipitate)
T1 sequence (Q13315 whole entry): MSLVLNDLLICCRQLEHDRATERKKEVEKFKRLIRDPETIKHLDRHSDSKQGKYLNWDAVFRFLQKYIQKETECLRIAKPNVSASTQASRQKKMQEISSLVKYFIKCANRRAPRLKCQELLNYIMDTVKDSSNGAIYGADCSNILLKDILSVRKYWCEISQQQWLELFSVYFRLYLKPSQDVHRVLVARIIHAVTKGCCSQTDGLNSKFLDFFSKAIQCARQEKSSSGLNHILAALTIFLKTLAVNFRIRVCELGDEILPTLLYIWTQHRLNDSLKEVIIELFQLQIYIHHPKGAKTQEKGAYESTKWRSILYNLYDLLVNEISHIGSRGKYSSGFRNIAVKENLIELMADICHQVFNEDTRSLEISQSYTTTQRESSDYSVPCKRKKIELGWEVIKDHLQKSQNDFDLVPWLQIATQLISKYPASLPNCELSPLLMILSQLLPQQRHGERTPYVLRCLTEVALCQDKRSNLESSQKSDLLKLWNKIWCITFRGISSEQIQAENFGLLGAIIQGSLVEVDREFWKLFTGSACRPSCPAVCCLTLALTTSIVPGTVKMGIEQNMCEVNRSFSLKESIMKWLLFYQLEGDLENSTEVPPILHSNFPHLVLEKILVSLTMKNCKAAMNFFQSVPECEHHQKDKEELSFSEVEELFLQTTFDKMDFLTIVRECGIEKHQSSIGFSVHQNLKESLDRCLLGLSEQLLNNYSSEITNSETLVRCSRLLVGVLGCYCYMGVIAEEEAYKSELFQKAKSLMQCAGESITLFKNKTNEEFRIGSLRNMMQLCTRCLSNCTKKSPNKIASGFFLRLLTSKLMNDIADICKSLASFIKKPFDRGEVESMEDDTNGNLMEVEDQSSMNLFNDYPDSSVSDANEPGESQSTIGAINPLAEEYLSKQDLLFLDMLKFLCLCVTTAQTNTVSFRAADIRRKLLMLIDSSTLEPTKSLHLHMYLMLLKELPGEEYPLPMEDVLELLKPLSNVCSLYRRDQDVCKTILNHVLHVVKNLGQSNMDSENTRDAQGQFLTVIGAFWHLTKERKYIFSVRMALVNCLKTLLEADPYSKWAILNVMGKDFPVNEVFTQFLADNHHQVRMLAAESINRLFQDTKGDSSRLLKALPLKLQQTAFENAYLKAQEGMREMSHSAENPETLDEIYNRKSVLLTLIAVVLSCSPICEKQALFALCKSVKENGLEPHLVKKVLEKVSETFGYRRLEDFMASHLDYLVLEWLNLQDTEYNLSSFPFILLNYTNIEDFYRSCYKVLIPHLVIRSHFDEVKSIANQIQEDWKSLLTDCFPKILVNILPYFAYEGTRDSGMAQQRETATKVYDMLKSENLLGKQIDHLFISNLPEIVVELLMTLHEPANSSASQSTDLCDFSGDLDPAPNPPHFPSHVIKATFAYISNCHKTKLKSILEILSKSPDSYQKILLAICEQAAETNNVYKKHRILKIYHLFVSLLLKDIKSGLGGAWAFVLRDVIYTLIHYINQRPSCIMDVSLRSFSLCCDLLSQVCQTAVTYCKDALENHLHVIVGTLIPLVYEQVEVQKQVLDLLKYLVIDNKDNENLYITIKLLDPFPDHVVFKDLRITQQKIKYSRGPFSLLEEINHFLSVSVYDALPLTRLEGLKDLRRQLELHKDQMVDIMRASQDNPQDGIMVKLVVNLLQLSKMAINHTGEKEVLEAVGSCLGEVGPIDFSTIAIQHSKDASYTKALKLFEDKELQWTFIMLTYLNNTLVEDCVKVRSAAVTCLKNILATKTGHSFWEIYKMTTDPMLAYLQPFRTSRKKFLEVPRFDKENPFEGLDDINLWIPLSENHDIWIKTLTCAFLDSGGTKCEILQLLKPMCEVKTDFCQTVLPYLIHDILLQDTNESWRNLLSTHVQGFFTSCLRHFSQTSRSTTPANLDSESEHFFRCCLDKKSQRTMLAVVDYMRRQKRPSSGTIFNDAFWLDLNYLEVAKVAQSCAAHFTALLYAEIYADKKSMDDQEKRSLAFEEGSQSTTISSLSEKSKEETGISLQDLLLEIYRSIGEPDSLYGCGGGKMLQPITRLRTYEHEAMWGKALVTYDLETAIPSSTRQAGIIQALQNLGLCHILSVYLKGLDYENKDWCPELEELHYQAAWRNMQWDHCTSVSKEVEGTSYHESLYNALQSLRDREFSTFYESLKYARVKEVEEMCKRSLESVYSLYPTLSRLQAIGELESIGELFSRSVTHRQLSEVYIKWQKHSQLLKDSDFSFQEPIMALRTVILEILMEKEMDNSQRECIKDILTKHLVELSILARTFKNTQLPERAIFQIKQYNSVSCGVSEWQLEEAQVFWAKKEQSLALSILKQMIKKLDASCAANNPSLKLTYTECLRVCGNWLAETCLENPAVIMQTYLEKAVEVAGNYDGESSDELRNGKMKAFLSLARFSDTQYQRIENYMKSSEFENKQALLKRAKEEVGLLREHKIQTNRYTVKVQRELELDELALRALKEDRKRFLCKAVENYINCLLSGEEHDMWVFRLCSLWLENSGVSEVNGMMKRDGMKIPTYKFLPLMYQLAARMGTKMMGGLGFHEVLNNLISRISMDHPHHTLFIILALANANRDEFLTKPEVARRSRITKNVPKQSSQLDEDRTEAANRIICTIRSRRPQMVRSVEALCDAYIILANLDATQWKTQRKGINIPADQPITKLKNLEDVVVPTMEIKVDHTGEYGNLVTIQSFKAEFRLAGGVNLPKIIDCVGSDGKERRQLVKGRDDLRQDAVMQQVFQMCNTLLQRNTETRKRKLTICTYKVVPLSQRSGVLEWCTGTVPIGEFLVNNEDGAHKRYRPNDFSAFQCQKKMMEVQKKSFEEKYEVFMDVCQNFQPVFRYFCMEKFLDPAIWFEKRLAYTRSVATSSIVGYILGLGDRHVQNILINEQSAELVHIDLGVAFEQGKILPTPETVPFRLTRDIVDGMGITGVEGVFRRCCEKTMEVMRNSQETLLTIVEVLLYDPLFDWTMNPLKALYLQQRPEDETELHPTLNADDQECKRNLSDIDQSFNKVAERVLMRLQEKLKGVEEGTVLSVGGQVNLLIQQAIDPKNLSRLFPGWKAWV
Method: (§4) In order to assess the inhibitory action of the compounds against ATM in vitro, the following assay was used to determine IC50 values.
(§5) ATM protein was immunoprecipitated from HeLa cell nuclear extract using rabbit polyclonal antisera raised to the C-terminal ˜500 amino-acid residues of the human ATM protein. The immunoprecipitation was performed according to the methodology described by Banin, S. et al. (1998) Enhanced phosphorylation of p53 by ATM in response to DNA damage. Science 281:1674-1677. 10 μl of immunoprecipitated ATM in Buffer C (50 mM Hepes, pH 7.4, 6 mM MgCl2, 150 mM NaCl, 0.1 mM sodium orthovanadate, 4 mM MnCl2, 0.1 mM dithiothreitol, 10% glycerol) was added to 32.5 μl of buffer C containing 1 μg of the ATM substrate GSTp53N66 in a V-bottomed 96 well polypropylene plate. The GSTp53N66 substrate is the amino terminal 66 amino acid residues of human wild type p53 fused to glutathione S-transferase. ATM phosphorylates p53 on the residue serine 15 (Banin, S. et al. (1998) Enhanced phosphorylation of p53 by ATM in response to DNA damage. Science 281:1674-1677). Varying concentrations of inhibitor were then added. […] After 10 minutes of incubation at 37° C., the reactions were initiated by the addition of 5 μl of 50 μM Na-ATP. After 1 h with shaking at 37° C., 150 μl of phosphate buffered saline (PBS) was added to the reaction and the plate centrifuged at 1500 rpm for 10 minutes. 5 μl of the reaction was then transferred to a 96 well opaque white plate containing 45 μl of PBS to allow the GSTp53N66 substrate to bind to the plate wells. The plate was covered and incubated at room temperature for 1 h with shaking before discarding the contents. The plate wells were washed twice by the addition of PBS prior to the addition of 3% (w/v) bovine serum albumin (BSA) in PBS. The plate was incubated at room temperature for 1 h with shaking before discarding the contents and washing twice with PBS. To the wells, 50 μl of a 1:10,000 dilution of primary phosphoserine-15 antibody (Cell Signaling Technology, #9284L) in 3% BSA/PBS was added to detect the phosphorylation event on the serine 15 residue of p53 elicited by the ATM kinase. After 1 h of incubation at room temperature with shaking, the wells were washed four times with PBS prior to the addition of an anti-rabbit HRP conjugated secondary antibody (Pierce, 31462) with shaking for 1 h at room temperature. The wells were then washed four times with PBS before the addition of chemiluminescence reagent (NEN Renaissance, NEL105). The plate was then shaken briefly, covered with a transparent plate seal and transferred to a TopCount NXT for chemiluminescent counting. Counts per second, following a one second counting time, were recorded for each reaction. The inhibition of ATM activity by compounds was calculated as described above for the DNA-PK assay.
as §3

[4] = tested on: ATM protein; assay: as above; type: biochemical, human; conditions: selectivity ratio from the IC50s for ATM and DNA-PK
Method: as §4, §5, §3

[5] = biological target: T2, Mammalian DNA-PK, isolated from Hela cell nuclear extract (Homo sapiens, UniProt P78527); assay: DNA-PK inhibition assay (33P-ATP, filter binding); type: biochemical
T2 construct: Mammalian DNA-PK, isolated from Hela cell nuclear extract; endogenous in cells; host or cells: HeLa cell nuclear extract (purified per Gell and Jackson 1999)
Summary of the method: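 DNA-PK from HeLa nuclear extract preincubated with compound 10 min at 30 °C, then started with 50 μM Na-ATP final, ^33P-γATP and 30mer dsDNA (10 ng/μl), run 45 min at 30 °C.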

[6] = biological target: T3, PI 3-kinase (p110α/p85α) (UniProt P32871); assay: PI 3-kinase inhibition assay; type: biochemical; conditions: GST-fused p110α/p85α
T3 construct: other: GST-fused p110α/p85α
Description: as §1, §2, §3

[7] = tested on: cells; conditions: literature; cited from earlier work
[8] = biological target: PI 3-kinase; conditions: stated to be the same as for DNA-PK; cited from earlier work
[9] = IC50 of less than about 1 μM and/or % inhibition of more than about 50 at 1 μM, read-out: DNA-PK inhibition IC50 (particular efficacy)
[10] = concentration at which 50% of the enzyme activity is inhibited, read-out: DNA-PK Inhibition IC50

SMILES	Δ(DNA-PK/PI 3-K) [1]	Enhancement Ratio (ER) [2]	IC50 [3]	Δ(DNA-PK/ATM) [4]	IC50 [5, 9]	IC50 [5, 10]	IC50 [6]	melting point	sensitisation of cells to the effects of IR [7]	IC50 [8]
O=c1cc(N2CCOCC2)nc2c3ccccc3ccn12 [Compound 5, 2-morpholin-1-yl-pyrimido-[2,1-a]isoquinolin-4-one]	>143	1.63	> 100 µM	>286	< 1 µM	0.35 µM				
O=c1cc(N2CCOCC2)oc2c1ccc1ccccc12 [Compound 293, 2-(morpholin-4-yl)-benzo[h]chromen-4-one]	50	1.7	> 100 µM	>250	< 1 µM	0.4 µM	20 µM			
O=c1cc(N2CCOCC2)oc2cc(OCc3ccccc3)ccc12 [Compound 337, 7-Benzyloxy-2-morpholin-4-yl-chromen-4-one]		1.12	> 100 µM	>154	< 1 µM	0.65 µM				
O=c1cc(N2CCOCC2)oc2cc(OCc3ccc(F)cc3)ccc12 [Compound 414, 7-(4-Fluoro-benzyloxy)-2-morpholin-4-yl-chromen-4-one]		1.69	> 100 µM			1.5 µM	95 µM			
O=c1cc(N2CCOCC2)oc2cc(OCc3ccc(Cl)cc3)ccc12 [Compound 415, 7-(4-chlorobenzyloxy)-2-(morpholin-4-yl)-chromen-4-one]	>200	1.86	> 100 µM	>200	< 1 µM	0.5 µM	> 100 µM			
O=c1cc(N2CCOCC2)oc2cc(OCc3ccc(Br)cc3)ccc12 [Compound 416, 7-(4-Bromobenzyloxy)-2-morpholin-4-yl-chromen-4-one]		1.32	> 100 µM	>167	< 1 µM	0.6 µM		221 to 222 °C		
O=c1cc(N2CCOCC2)oc2c(-c3ccccc3)cccc12 [LY294002]									weakly sensitise	~1 µM

— US7674823B2, “DNA-PK inhibitors” (Cancer Research Technology Limited, priority 2001, dated 2010)
